Experimental data published in ChEMBL document CHEMBL1201862, “PubChem BioAssay data set” (2004).
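Method: 48-hour compound exposure of cells in 96-well plates, five concentrations, linear interpolation of endpoints. At the GI50, growth is halved.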 Activity calls are given as the source filed them. Rule as the data show it: active = GI50 up to about 1.1 µM and inactive = higher.

Tests used:
Experiment in all cases: NCI anticancer screen, dose series, 48 h
[1] = system: CAKI-1
[2] = system: UACC-257
[3] = system: HCT-15
[4] = system: HOP-62
[5] = system: UO-31
[6] = system: LOX IMVI
[7] = system: RPMI-8226
[8] = system: SK-MEL-28
[9] = system: KM12
[10] = system: MOLT-4
[11] = system: SNB-19
[12] = system: OVCAR-5
[13] = system: K562
[14] = system: HL-60
[15] = system: A498
[16] = system: NCI/ADR-RES
[17] = system: MDA-MB-231
[18] = system: MDA-N
[19] = system: NCI-H23
[20] = system: T47D

| Structure (SMILES) | GI50 [1] | GI50 [2] | GI50 [3] [µM] | GI50 [4] | GI50 [5] | GI50 [6] | GI50 [7] | GI50 [8] | GI50 [9] | GI50 [10] | GI50 [11] | GI50 [12] | GI50 [13] | GI50 [14] | GI50 [15] | GI50 [16] | GI50 [17] | GI50 [18] | GI50 [19] | GI50 [20] |
| --- | --- | --- | --- | --- | --- | --- | --- | --- | --- | --- | --- | --- | --- | --- | --- | --- | --- | --- | --- | --- |
| Oc1nnc(CNc2ccc(Cl)cc2Cl)c2ccccc12 | 24.1 µM (inactive) | 33.4 µM (inactive) | 20.1 | 20.5 µM (inactive) | 17.3 µM (inactive) | 46.3 µM (inactive) | 58.2 µM (inactive) | 22.3 µM (inactive) | 39.3 µM (inactive) | 31.5 µM (inactive) | 28.1 µM (inactive) | 24.4 µM (inactive) | 44.9 µM (inactive) | 22.5 µM (inactive) | 8.24 µM (inactive) | – | – | – | – | – |
| CCOC(=O)CCC(NC(=O)c1ccc(CNc2nc3ccccc3nc2C(=O)OCC)cc1)C(=O)OCC (configuration not stated) | – | – | > 100 | > 100 µM (inactive) | 44.1 µM (inactive) | > 100 µM (inactive) | > 100 µM (inactive) | > 100 µM (inactive) | > 100 µM (inactive) | > 100 µM (inactive) | 23.7 µM (inactive) | > 100 µM (inactive) | > 100 µM (inactive) | – | > 100 µM (inactive) | > 100 µM (inactive) | 24.9 µM (inactive) | > 100 µM (inactive) | > 100 µM (inactive) | – |
| O=C(c1ccccc1)c1cc(-c2ccccc2)c(-c2ccccc2)[nH]c(=O)c1=O | 30.9 µM (inactive) | 41.5 µM (inactive) | 28.3 | 59.6 µM (inactive) | 35.8 µM (inactive) | 34.5 µM (inactive) | 23.9 µM (inactive) | 42.2 µM (inactive) | 35.8 µM (inactive) | 24.2 µM (inactive) | 64.6 µM (inactive) | 54.2 µM (inactive) | 32.6 µM (inactive) | 15.7 µM (inactive) | 77.4 µM (inactive) | 33.7 µM (inactive) | > 100 µM (inactive) | 38.5 µM (inactive) | 19 µM (inactive) | – |
| O=C(CSCC(=O)N/N=C/c1cccc(O)c1)N/N=C/c1cccc(O)c1 | > 100 µM (inactive) | > 100 µM (inactive) | > 100 | > 100 µM (inactive) | > 100 µM (inactive) | – | > 100 µM (inactive) | > 100 µM (inactive) | > 100 µM (inactive) | > 100 µM (inactive) | > 100 µM (inactive) | > 100 µM (inactive) | > 100 µM (inactive) | > 100 µM (inactive) | > 100 µM (inactive) | > 100 µM (inactive) | > 100 µM (inactive) | – | > 100 µM (inactive) | > 100 µM (inactive) |
| CN(N)C(=O)NCCCl | > 100 µM (inactive) | > 100 µM (inactive) | > 100 | > 100 µM (inactive) | > 100 µM (inactive) | > 100 µM (inactive) | > 100 µM (inactive) | > 100 µM (inactive) | > 100 µM (inactive) | > 100 µM (inactive) | > 100 µM (inactive) | > 100 µM (inactive) | > 100 µM (inactive) | > 100 µM (inactive) | > 100 µM (inactive) | 0.021 µM (active) | 1.3 µM (inactive) | > 100 µM (inactive) | > 100 µM (inactive) | – |
| COc1ccc(C2=NN=C3C(c4ccccc4)=Nc4ccccc4N3C2)cc1 | – | 27.5 µM (inactive) | 16.9 | 14.8 µM (inactive) | 6.46 µM (inactive) | 16.9 µM (inactive) | 38.8 µM (inactive) | 12 µM (inactive) | 21.4 µM (inactive) | 7.05 µM (inactive) | 23.8 µM (inactive) | 54.2 µM (inactive) | 30.8 µM (inactive) | 7.55 µM (inactive) | 40.1 µM (inactive) | 10.8 µM (inactive) | 27.5 µM (inactive) | 49.1 µM (inactive) | 21 µM (inactive) | – |
| Cc1ccccc1NC(=O)Cc1csc(N/N=C2\C(=O)Nc3ccccc32)n1 | 19.9 µM (inactive) | 91 µM (inactive) | 37.2 | – | 40.8 µM (inactive) | 64.1 µM (inactive) | 31 µM (inactive) | 1 µM (active) | 33.3 µM (inactive) | 29.7 µM (inactive) | 71.8 µM (inactive) | 41.7 µM (inactive) | 64.7 µM (inactive) | 22.3 µM (inactive) | > 100 µM (inactive) | 29.7 µM (inactive) | 29.7 µM (inactive) | 75.2 µM (inactive) | 38.4 µM (inactive) | – |
| CC(C)[C@@H](C)[C@@]1(C)C[C@@H]1[C@@H](C)[C@H]1CC[C@@H]([C@@H]2CC=C3C[C@@H](O)CC[C@]3(C)C2=O)[C@]1(C)CCO | 12.8 µM (inactive) | 14.3 µM (inactive) | 5.27 | 17.3 µM (inactive) | 15.2 µM (inactive) | 4.57 µM (inactive) | 12.2 µM (inactive) | 7.53 µM (inactive) | 2.82 µM (inactive) | 4.17 µM (inactive) | 12.6 µM (inactive) | 11.6 µM (inactive) | 3.49 µM (inactive) | 2.11 µM (inactive) | 15.3 µM (inactive) | 13.4 µM (inactive) | 14.8 µM (inactive) | 13.3 µM (inactive) | 14.1 µM (inactive) | – |
| CCOC(=O)c1cn2c(n1)sc1cc(OC)ccc12 | 13.5 µM (inactive) | 80.9 µM (inactive) | 3.89 | 13 µM (inactive) | 10.9 µM (inactive) | 18.2 µM (inactive) | 4.08 µM (inactive) | > 100 µM (inactive) | 3.34 µM (inactive) | 4.61 µM (inactive) | 9.82 µM (inactive) | 14.7 µM (inactive) | 3.75 µM (inactive) | – | 46.3 µM (inactive) | 19.5 µM (inactive) | 37.3 µM (inactive) | 2.6 µM (inactive) | > 47.5 µM (inactive) | – |
| CC(=O)NC1=C(NCC(C)C)C(=O)c2ccccc2C1=O | 16.7 µM (inactive) | 18.8 µM (inactive) | 17.7 | 89.5 µM (inactive) | 18 µM (inactive) | 15.5 µM (inactive) | 37.3 µM (inactive) | 17.1 µM (inactive) | 42.9 µM (inactive) | 29.4 µM (inactive) | 38.3 µM (inactive) | 65.9 µM (inactive) | 15.3 µM (inactive) | 2.76 µM (inactive) | 83.2 µM (inactive) | – | – | – | 20 µM (inactive) | – |
| CCCCCCCCCCC(O)[C@H]1CCC(C2CC[C@H]([C@H](O)CCCCCCCCCCC(O)CC3=CC(C)OC3=O)O2)O1 (some centres not stated) | 2.18 µM (inactive) | 1.27 µM (inactive) | 2.01 | 1.97 µM (inactive) | 1.15 µM (inactive) | 1.38 µM (inactive) | 2.21 µM (inactive) | 2.05 µM (inactive) | 1.47 µM (inactive) | 2.47 µM (inactive) | 1.82 µM (inactive) | 3.08 µM (inactive) | 1.8 µM (inactive) | 1.77 µM (inactive) | 2.17 µM (inactive) | 0.211 µM (active) | 1.61 µM (inactive) | – | 0.0493 µM (active) | 2.23 µM (inactive) |
| CC12CCC(CC1(Cl)Cl)C2 (configuration not stated) | > 100 µM (inactive) | > 100 µM (inactive) | > 100 | > 100 µM (inactive) | > 100 µM (inactive) | > 100 µM (inactive) | > 100 µM (inactive) | > 100 µM (inactive) | > 100 µM (inactive) | > 100 µM (inactive) | > 100 µM (inactive) | > 100 µM (inactive) | > 100 µM (inactive) | > 100 µM (inactive) | – | > 100 µM (inactive) | – | – | > 100 µM (inactive) | > 100 µM (inactive) |
| ClC1c2ccccc2C2(c3ccccc3)OOC1(c1ccccc1)O2 (configuration not stated) | 2.37 µM (inactive) | 1.99 µM (inactive) | 1.53 | 10.3 µM (inactive) | 1.69 µM (inactive) | 0.352 µM (active) | 0.716 µM (active) | 1.95 µM (inactive) | 1.77 µM (inactive) | 1.26 µM (inactive) | 1.7 µM (inactive) | 4.24 µM (inactive) | 1.38 µM (inactive) | 0.136 µM (active) | 2.39 µM (inactive) | – | – | – | 1.8 µM (inactive) | – |
| CCCCCCNc1n[nH]c(=O)c2c1nnn2Cc1ccccc1 | > 100 µM (inactive) | > 100 µM (inactive) | > 100 | > 100 µM (inactive) | > 100 µM (inactive) | > 100 µM (inactive) | > 100 µM (inactive) | > 100 µM (inactive) | > 100 µM (inactive) | > 100 µM (inactive) | > 100 µM (inactive) | > 100 µM (inactive) | > 100 µM (inactive) | > 100 µM (inactive) | – | > 100 µM (inactive) | > 100 µM (inactive) | > 100 µM (inactive) | > 100 µM (inactive) | – |
| CC[C@]12C=CCN3CCC4(c5cc([C@@]6(C(=O)OC)CC7CN(CCc8c6[nH]c6ccccc86)C[C@@H]6CCC[C@H]76)c(OC)cc5N(C)C4[C@](O)(C(=O)OC)C1OC(C)=O)C32 (some centres not stated) | 0.962 µM (active) | 0.167 µM (active) | 0.443 | 0.106 µM (active) | 3.55 µM (inactive) | 0.141 µM (active) | 0.141 µM (active) | 0.168 µM (active) | 0.0713 µM (active) | 0.155 µM (active) | 0.121 µM (active) | 0.741 µM (active) | 0.0513 µM (active) | 0.0585 µM (active) | 0.251 µM (active) | 1.15 µM (inactive) | 0.0762 µM (active) | 0.00363 µM (active) | 0.116 µM (active) | – |
| Cc1ccc(Nc2nc(O)c3[nH]cnc3n2)cc1CO | 15.2 µM (inactive) | 17.3 µM (inactive) | 15.6 | – | 16 µM (inactive) | 19.9 µM (inactive) | 10.7 µM (inactive) | 17.8 µM (inactive) | 8.81 µM (inactive) | 15.5 µM (inactive) | 12.2 µM (inactive) | 18.9 µM (inactive) | 15.9 µM (inactive) | 1.7 µM (inactive) | – | 15.4 µM (inactive) | 12.1 µM (inactive) | – | 17.7 µM (inactive) | 14 µM (inactive) |
